Reference: ChEMBL document CHEMBL4152361, “Synthesis of oxidative metabolites of CRA13 and their analogs: Identification of CRA13 active metabolites and analogs thereof with selective CB2R affinity” (Bioorg Med Chem, 2018)

Assays:
Cannabinoid receptor 1 [1] = molecular target: T1, Cannabinoid receptor 1 (Homo sapiens, UniProt P21554); test: Displacement of [3H]SR141716A from membrane bound human CB1 receptor at 100 uM after 1 hr by beta scintillation counting method relative to control
Cannabinoid receptor 1 [2] = molecular target: T1, Cannabinoid receptor 1; test: Displacement of [3H]SR141716A from membrane bound human CB1 receptor after 1 hr by beta scintillation counting method
Cannabinoid receptor 2 [3] = molecular target: T2, Cannabinoid receptor 2 (Homo sapiens, UniProt P34972); test: Displacement of [3H]CP55940 from membrane bound human CB2 receptor at 100 uM after 1 hr by beta scintillation counting method relative to control
Cannabinoid receptor 2 [4] = molecular target: T2, Cannabinoid receptor 2; test: Displacement of [3H]CP55940 from membrane bound human CB2 receptor after 1 hr by beta scintillation counting method
Homo sapiens [5] = species: Homo sapiens; test: Selectivity ratio of compound effect for displacement of [3H]SR141716A from membrane bound human CB1 receptor at 100 uM to compound effect for displacement of [3H]CP55940 from membrane bound human CB2 receptor at 100 uM
Cannabinoid receptor 1 [6] = molecular target: T1, Cannabinoid receptor 1; test: Displacement of [3H]SR141716A from membrane bound human CB1 receptor at 10 uM after 1 hr by beta scintillation counting method relative to control
Cannabinoid receptor 2 [7] = molecular target: T2, Cannabinoid receptor 2; test: Displacement of [3H]CP55940 from membrane bound human CB2 receptor at 10 uM after 1 hr by beta scintillation counting method relative to control
Homo sapiens [8] = species: Homo sapiens; test: Selectivity ratio of IC50 for displacement of [3H]SR141716A from membrane bound human CB1 receptor to IC50 for displacement of [3H]CP55940 from membrane bound human CB2 receptor
Homo sapiens [9] = species: Homo sapiens; test: Selectivity ratio of compound effect for displacement of [3H]CP55940 from membrane bound human CB2 receptor at 10 uM to compound effect for displacement of [3H]SR141716A from membrane bound human CB1 receptor at 10 uM

T1 sequence (P21554 whole entry): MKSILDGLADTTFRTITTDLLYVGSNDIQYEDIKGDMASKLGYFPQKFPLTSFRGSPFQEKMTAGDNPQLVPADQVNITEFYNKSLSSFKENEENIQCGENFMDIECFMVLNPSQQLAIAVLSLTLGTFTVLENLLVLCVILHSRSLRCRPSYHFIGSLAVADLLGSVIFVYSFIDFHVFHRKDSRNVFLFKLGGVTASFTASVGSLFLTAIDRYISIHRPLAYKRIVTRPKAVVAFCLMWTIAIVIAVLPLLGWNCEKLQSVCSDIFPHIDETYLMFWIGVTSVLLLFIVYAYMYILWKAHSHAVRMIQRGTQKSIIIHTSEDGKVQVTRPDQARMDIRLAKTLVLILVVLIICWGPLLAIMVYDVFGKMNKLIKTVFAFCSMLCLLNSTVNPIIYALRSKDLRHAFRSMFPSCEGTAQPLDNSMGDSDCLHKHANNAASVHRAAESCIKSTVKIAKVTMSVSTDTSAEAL
T2 sequence (P34972 whole entry): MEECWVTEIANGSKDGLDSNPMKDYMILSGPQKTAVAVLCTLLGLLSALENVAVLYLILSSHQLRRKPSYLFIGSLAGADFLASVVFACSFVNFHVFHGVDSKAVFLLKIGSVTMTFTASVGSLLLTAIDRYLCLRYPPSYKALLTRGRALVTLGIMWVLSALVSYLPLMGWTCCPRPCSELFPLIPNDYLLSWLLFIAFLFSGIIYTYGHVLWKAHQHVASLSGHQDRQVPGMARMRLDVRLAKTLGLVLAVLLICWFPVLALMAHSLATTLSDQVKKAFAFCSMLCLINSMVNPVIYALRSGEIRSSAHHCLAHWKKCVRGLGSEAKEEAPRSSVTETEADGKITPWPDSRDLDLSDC

O=C(O)CCCOc1ccc(C(=O)c2cccc3ccccc23)c2ccccc12
inhibition (Cannabinoid receptor 1 [1]): 16%
IC50 (Cannabinoid receptor 1 [2]): > 100 µM
inhibition (Cannabinoid receptor 2 [3]): 5.36%
IC50 (Cannabinoid receptor 2 [4]): > 100 µM
Selectivity ratio (Homo sapiens [5]): 2.99

COC(=O)CCCOc1ccc(C(=O)c2cccc3ccccc23)c2ccccc12
inhibition (Cannabinoid receptor 1 [1]): 68.8%
inhibition (Cannabinoid receptor 1 [6]): 43.1%
IC50 (Cannabinoid receptor 1 [2]): 14.1 µM
inhibition (Cannabinoid receptor 2 [3]): 101%
inhibition (Cannabinoid receptor 2 [7]): 96.9%
IC50 (Cannabinoid receptor 2 [4]): 1.69 µM
Ratio IC50 (Homo sapiens [8]): 8.36
Selectivity ratio (Homo sapiens [9]): 2.25

O=C(O)CCCCOc1ccc(C(=O)c2cccc3ccccc23)c2ccccc12
inhibition (Cannabinoid receptor 1 [1]): 20.5%
inhibition (Cannabinoid receptor 1 [6]): 13%
IC50 (Cannabinoid receptor 1 [2]): > 100 µM
inhibition (Cannabinoid receptor 2 [3]): 52.1%
inhibition (Cannabinoid receptor 2 [7]): 36.6%
IC50 (Cannabinoid receptor 2 [4]): 12.6 µM
Ratio IC50 (Homo sapiens [8]): > 7.92
Selectivity ratio (Homo sapiens [9]): 2.81

O=C(c1cccc2ccccc12)c1ccc(OCCCCCO)c2ccccc12
inhibition (Cannabinoid receptor 1 [6]): 35.8%
IC50 (Cannabinoid receptor 1 [2]): > 10 µM
inhibition (Cannabinoid receptor 2 [7]): 75.3%
IC50 (Cannabinoid receptor 2 [4]): 1.08 µM
Ratio IC50 (Homo sapiens [8]): > 9.26
Selectivity ratio (Homo sapiens [9]): 2.1

O=C(c1cccc2ccccc12)c1ccc(OCCCCCCO)c2ccccc12
inhibition (Cannabinoid receptor 1 [6]): 42.6%
IC50 (Cannabinoid receptor 1 [2]): > 10 µM
inhibition (Cannabinoid receptor 2 [7]): 46.9%
IC50 (Cannabinoid receptor 2 [4]): > 10 µM
Selectivity ratio (Homo sapiens [9]): 1.1

CCCCCOc1ccc(C(=O)c2cccc3ccccc23)c2ccccc12
inhibition (Cannabinoid receptor 1 [6]): 64.2%
inhibition (Cannabinoid receptor 2 [7]): 64.2%
IC50 (Cannabinoid receptor 2 [4]): 5.3 µM

O=C(c1cccc2ccccc12)c1ccc(OCCCO)c2ccccc12
inhibition (Cannabinoid receptor 1 [1]): 55.6%
inhibition (Cannabinoid receptor 1 [6]): 21.3%
IC50 (Cannabinoid receptor 1 [2]): 100 µM
inhibition (Cannabinoid receptor 2 [3]): 78.5%
inhibition (Cannabinoid receptor 2 [7]): 37.4%
IC50 (Cannabinoid receptor 2 [4]): 14.7 µM
Ratio IC50 (Homo sapiens [8]): 6.81
Selectivity ratio (Homo sapiens [9]): 1.76

COC(=O)CCCCOc1ccc(C(=O)c2cccc3ccccc23)c2ccccc12
inhibition (Cannabinoid receptor 1 [1]): 36.5%
inhibition (Cannabinoid receptor 1 [6]): 4.44%
IC50 (Cannabinoid receptor 1 [2]): > 100 µM
inhibition (Cannabinoid receptor 2 [3]): 85.6%
inhibition (Cannabinoid receptor 2 [7]): 11.9%
IC50 (Cannabinoid receptor 2 [4]): 47.7 µM
Ratio IC50 (Homo sapiens [8]): > 2.1
Selectivity ratio (Homo sapiens [9]): 2.69

O=C(c1cccc2ccccc12)c1ccc(OCCCCO)c2ccccc12
inhibition (Cannabinoid receptor 1 [1]): 72%
inhibition (Cannabinoid receptor 1 [6]): 31.2%
IC50 (Cannabinoid receptor 1 [2]): 17.9 µM
inhibition (Cannabinoid receptor 2 [3]): 89.9%
inhibition (Cannabinoid receptor 2 [7]): 91.7%
IC50 (Cannabinoid receptor 2 [4]): 5.05 µM
Ratio IC50 (Homo sapiens [8]): 3.55
Selectivity ratio (Homo sapiens [9]): 2.93
